Laboratory results as given in patent US12398141B2 (SHANGHAI SYNERGY PHARMACEUTICAL SCIENCES CO., LTD, priority 2019, dated 2025).
Where two headings read alike, the source gives them in different places.

How the values were obtained:
Format in all cases: biochemical
JAK2 = JAK2 (Homo sapiens (Human), UniProt O60674); assay: JAK2 LANCE Ultra kinase assay; settings: 12 uM ATP
JAK1 = JAK1 (Homo sapiens (Human), UniProt P23458); assay: JAK1 LANCE Ultra kinase assay; settings: for IC50: 38 uM ATP; for JAK2/JAK1: ratio of IC50 JAK2 to IC50 JAK1
Experimental: Inhibition test on activity of JAK kinase in vitro was carried out by the following methods.
JAK1 LANCE® Ultra assay, JAK2 LANCE® Ultra assay and JAK3 LANCE® Ultra assay were used to carry out the test separately, and kits of the above assays were supplied by PerkinElmer. […]
JAK1, JAK2 and JAK3 kinase, ATP and substrates were dissolved and diluted with buffers.
A test liquid was 2 nM Eu-W1024 anti-phosphotyrosine (PerkinElmer, AD0069). A stop buffer was 10 mM edetic acid (Intech, 1842C505).
2.5 μl of an 8-fold solution of the compound and 5 μl of a 4-fold solution of JAK1 or JAK2 or JAK3 kinase were added into a 384-well plate, respectively, and reacted for 10 minutes at room temperature. 2.5 μl of an 8-fold solution of ULight™-JAK-1 peptide/ATP was added and reacted for 90 minutes at room temperature. Finally, 5 μl of 4-fold edetic acid stop buffer and 5 μl of 4-fold test liquid of Eu-W1024 anti-phosphotyrosine were added and incubated for 60 minutes.
According to the formula: percentage of inhibition rate=(maximum value−transform value)/(maximum value−minimum value)×100, inhibition rate of each compound at various concentrations was calculated. The maximum value was the reference value of dimethyl sulfoxide added into the well plate, the minimum value was the blank value, and the transform value is the value obtained by the well of each compound. The IC50 values of the corresponding compounds were then obtained by fitting by using the XLFit fitting tool in excel.

JAK3 = JAK3 (Homo sapiens (Human), UniProt P52333); assay: JAK3 LANCE Ultra kinase assay
JAK3, sequence (P52333 whole entry): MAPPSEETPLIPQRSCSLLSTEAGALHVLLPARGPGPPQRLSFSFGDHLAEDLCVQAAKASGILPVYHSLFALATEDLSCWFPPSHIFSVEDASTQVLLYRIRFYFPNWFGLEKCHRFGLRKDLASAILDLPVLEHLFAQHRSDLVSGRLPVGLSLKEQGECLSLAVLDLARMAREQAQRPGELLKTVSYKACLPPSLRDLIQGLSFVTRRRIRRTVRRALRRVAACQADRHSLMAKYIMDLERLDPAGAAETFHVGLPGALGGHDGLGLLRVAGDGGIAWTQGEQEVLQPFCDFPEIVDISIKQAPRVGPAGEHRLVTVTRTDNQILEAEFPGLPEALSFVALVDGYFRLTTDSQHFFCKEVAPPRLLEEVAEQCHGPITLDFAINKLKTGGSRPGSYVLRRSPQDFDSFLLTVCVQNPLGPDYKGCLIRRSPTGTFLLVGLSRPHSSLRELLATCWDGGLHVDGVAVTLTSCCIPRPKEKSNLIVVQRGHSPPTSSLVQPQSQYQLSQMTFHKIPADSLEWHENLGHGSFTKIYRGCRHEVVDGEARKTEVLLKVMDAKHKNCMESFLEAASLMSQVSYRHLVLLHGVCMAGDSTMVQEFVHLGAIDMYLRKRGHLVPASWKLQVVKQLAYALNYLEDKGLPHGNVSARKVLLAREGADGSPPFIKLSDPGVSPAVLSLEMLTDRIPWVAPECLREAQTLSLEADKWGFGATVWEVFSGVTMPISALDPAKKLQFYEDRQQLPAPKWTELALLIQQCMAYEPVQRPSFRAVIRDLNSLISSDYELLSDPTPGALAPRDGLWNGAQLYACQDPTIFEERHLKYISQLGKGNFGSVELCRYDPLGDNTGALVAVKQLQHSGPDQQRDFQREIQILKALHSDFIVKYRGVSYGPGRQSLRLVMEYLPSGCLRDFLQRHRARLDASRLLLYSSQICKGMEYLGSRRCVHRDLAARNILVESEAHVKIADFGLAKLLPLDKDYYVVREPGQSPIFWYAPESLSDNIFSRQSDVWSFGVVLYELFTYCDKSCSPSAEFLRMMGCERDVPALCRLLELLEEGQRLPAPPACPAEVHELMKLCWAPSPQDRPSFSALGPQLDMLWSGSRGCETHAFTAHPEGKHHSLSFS

JAK2, sequence (O60674 whole entry): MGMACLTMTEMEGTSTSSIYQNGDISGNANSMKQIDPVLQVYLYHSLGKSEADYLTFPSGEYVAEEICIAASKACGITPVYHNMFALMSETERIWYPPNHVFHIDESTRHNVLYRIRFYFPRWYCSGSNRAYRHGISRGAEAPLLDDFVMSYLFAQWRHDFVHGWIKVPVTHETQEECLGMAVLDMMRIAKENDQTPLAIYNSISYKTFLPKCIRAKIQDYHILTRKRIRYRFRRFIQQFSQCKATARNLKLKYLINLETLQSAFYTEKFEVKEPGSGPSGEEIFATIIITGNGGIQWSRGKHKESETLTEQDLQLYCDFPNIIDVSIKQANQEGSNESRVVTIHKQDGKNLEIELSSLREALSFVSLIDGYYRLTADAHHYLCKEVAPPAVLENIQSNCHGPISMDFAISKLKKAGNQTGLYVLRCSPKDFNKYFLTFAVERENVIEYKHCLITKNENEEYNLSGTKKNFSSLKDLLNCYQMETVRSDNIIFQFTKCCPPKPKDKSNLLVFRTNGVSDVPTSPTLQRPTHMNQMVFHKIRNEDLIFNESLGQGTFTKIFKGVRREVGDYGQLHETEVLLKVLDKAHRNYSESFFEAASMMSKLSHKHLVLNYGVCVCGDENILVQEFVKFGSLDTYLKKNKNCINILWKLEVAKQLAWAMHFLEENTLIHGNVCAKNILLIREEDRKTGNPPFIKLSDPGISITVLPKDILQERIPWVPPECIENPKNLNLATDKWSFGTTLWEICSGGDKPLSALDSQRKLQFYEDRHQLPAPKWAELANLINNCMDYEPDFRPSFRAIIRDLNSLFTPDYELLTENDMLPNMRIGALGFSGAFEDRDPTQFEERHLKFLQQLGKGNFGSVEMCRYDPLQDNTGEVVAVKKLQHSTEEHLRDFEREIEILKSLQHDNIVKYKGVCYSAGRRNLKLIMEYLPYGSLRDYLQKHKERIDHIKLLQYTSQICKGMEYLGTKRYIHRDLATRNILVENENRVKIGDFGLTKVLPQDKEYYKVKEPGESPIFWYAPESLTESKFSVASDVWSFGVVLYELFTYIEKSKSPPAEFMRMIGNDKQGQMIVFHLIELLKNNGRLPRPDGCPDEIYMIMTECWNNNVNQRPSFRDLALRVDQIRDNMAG
JAK1, sequence (P23458 whole entry): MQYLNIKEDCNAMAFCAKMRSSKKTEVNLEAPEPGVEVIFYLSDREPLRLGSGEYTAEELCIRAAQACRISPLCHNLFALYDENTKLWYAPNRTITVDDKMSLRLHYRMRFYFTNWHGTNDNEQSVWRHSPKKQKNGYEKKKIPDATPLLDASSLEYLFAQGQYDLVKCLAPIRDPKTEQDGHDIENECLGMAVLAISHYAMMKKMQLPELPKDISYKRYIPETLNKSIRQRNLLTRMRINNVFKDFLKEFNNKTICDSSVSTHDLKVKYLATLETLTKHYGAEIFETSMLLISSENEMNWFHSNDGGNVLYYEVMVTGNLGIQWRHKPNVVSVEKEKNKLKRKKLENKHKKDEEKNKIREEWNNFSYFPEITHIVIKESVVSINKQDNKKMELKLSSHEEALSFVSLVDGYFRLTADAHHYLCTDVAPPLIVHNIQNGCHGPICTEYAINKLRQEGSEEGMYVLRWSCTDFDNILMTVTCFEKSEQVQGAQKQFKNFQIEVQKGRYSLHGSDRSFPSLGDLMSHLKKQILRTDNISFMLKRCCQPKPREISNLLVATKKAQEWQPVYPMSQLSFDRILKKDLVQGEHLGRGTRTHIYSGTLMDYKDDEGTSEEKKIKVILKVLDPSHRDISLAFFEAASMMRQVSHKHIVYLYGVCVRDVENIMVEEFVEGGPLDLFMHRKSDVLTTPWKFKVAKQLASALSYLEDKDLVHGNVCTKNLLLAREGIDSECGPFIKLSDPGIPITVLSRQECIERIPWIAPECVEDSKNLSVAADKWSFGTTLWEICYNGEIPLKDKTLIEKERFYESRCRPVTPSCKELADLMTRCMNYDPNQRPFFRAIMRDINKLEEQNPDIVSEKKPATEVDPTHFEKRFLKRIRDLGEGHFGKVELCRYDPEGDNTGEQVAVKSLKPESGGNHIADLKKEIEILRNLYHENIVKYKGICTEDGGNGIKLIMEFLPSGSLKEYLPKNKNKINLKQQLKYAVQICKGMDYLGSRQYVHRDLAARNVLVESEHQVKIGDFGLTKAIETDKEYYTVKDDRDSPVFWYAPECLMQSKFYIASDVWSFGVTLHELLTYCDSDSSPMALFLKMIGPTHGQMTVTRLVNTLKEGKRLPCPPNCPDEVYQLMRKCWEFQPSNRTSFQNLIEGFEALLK

Row | Structure (SMILES) | IC50 (JAK2) [nM] | IC50 (JAK1) [nM] | JAK2/JAK1 (JAK1) | IC50 (JAK3; 4 uM ATP) [nM] | IC50 (JAK3) [nM]
1 | CCOc1nc(NC(=O)N2C[C@H]3C[C@H](N(C)c4c(C#N)cnc5[nH]ccc45)C[C@H]3C2)no1 [Compound H48, (3aR,5s,6aS)-5-((5-cyano-1H-pyrrolo[2,3-b]pyridin-4-yl)(methyl)amino)-N-(5-ethoxy-1,2,4-oxadiazole-3-yl)hexahydrocyclopentadiene[c]pyrrole-2(1H)-carboxamide] | 7.4 | 0.86 | 8.60 | 56 | –
2 | CC[C@@H]1CN(C(=O)Nc2nc(OC)ns2)C[C@@H]1Nc1c(C#N)cnc2[nH]ccc12 [Compound H80, 4-(((cis)-4-ethyl-1-(3-methoxy-1,2,4-thiadiazole-5-aminocarbonyl)pyrrolidin-3-yl)amino)-1H-pyrrolo[2,3-b]pyridin-5-carbonitrile] | 18.6 | 2.9 | 6.41 | 152 | –
3 | CN(c1c(C#N)cnc2[nH]ccc12)C1CC(NS(=O)(=O)c2ccc(C(F)(F)F)cc2)C1 (stereo not drawn) [Compound H16, (cis)-4-{[3-(4-trifluoromethylbenzenesulfonamido)-cyclobutyl-1-yl]-methyl-amino}-1H-pyrrolo[2,3-b]pyridin-5-carbonitrile] | 132 | 9.16 | 14.41 | 633 | –
4 | COCCOc1nsc(NC(=O)N2C[C@H]3C[C@H](Nc4c(C#N)cnc5[nH]ccc45)C[C@H]3C2)n1 [Compound H52, (3aR,5S,6aS)-5-((5-cyano-1H-pyrrolo[2,3-b]pyridin-4-yl)amino)-N-(3-(2-methoxyethoxy)-1,2,4-thiadiazole-5-yl)hexahydrocyclopenta[c]pyrrole-2(1H)-carboxamide] | 7.95 | 0.79 | 10.06 | 69 | –
5 | CN(c1c(C#N)cnc2[nH]ccc12)[C@H]1C[C@@H]2CN(S(=O)(=O)c3cccc(C(F)(F)F)c3)C[C@@H]2C1 [Compound H24] | 12.6 | 5.1 | 2.40 | 28 | –
6 | CN(c1c(C#N)cnc2[nH]ccc12)[C@H]1C[C@@H]2CN(S(=O)(=O)c3cccc(F)c3)C[C@@H]2C1 [Compound H28] | 135 | 9.5 | 14.21 | 220 | –
7 | CC[C@@H]1CN(C(=O)NC(C)C)C[C@@H]1Nc1c(C#N)cnc2[nH]ccc12 (relative stereo) [Compound H75] | 17.3 | – | – | – | 89

Further molecules by falling IC50 (JAK2), results first:

Row | IC50 (JAK2) [nM] | IC50 (JAK1) [nM] | JAK2/JAK1 (JAK1) | IC50 (JAK3; 4 uM ATP) [nM] | Structure (SMILES) | IC50 (JAK3) [nM]
8 | 36 | 5.8 | – | 161 | COc1nsc(NC(=O)N2C[C@H]3C[C@H](Nc4c(C#N)cnc5[nH]ccc45)C[C@H]3C2)n1 [Compound H20, (3aR,5s,6aS)-5-((5-cyano-1H-pyrrolo[2,3-b]pyridin-4-yl)amino)-N-(3-methoxy-1,2,4-thiadiazole-5-yl)hexahydrocyclopentadiene[c]pyrrole-2(1H)-carboxamide] | –
9 | 33 | 5.6 | 5.89 | 171 | CN(c1c(C#N)cnc2[nH]ccc12)[C@H]1C[C@@H]2CN(S(=O)(=O)CCC(F)(F)F)C[C@@H]2C1 [Compound H27] | –
10 | 17.7 | 2.59 | 6.83 | 253 | CN(C)Cc1nsc(NC(=O)N2C[C@H]3C[C@H](Nc4c(C#N)cnc5[nH]ccc45)C[C@H]3C2)n1 [Compound H55, (3aR,5s,6aS)-5-((5-cyano-1H-pyrrole[2,3-b]pyridin-4-yl)amino)-N-(3-((dimethylamino)methyl)-1,2,4-thiadiazole-5-yl)hexahydrocyclopenta[c]pyrrole-2(1H)-carboxamide] | –
11 | 9.8 | 1.13 | 8.67 | 70 | CN(c1c(C#N)cnc2[nH]ccc12)[C@@H]1CC[C@H](CS(=O)(=O)N2CCC(CO)C2)C1 (some centres unmarked) [Compound H71] | –
